Results taken from ChEMBL document CHEMBL1201862, “PubChem BioAssay data set” (2004).
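96-well plates; 48 h exposure; 5 concentrations. Endpoints by linear interpolation between flanking doses. Not reached: highest tested concentration assigned. GI50 = concentration required for 50% inhibition of growth.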 The source made the active and inactive calls. No stated cut-off is given here; in the data, active = GI50 up to about 1.1 µM and inactive = higher.

Columns and labels:
Experiment in all cases: NCI anticancer screen, dose series, 48 h
CAKI-1 = test system: CAKI-1
UO-31 = test system: UO-31
SK-MEL-2 = test system: SK-MEL-2
RXF 393 = test system: RXF 393
NCI-H522 = test system: NCI-H522
OVCAR-3 = test system: OVCAR-3
OVCAR-8 = test system: OVCAR-8
HOP-62 = test system: HOP-62
SR = test system: SR
LOX IMVI = test system: LOX IMVI
TK-10 = test system: TK-10
OVCAR-4 = test system: OVCAR-4
HOP-92 = test system: HOP-92
UACC-62 = test system: UACC-62

Measured: GI50

CCCCCCCCCCCC(=O)C1=C(O)CC(O)CC1=O (stereo not given)
inactive: CAKI-1 > 100 µM | UO-31 64.4 µM | SK-MEL-2 > 100 µM | RXF 393 > 100 µM | NCI-H522 > 100 µM | OVCAR-3 82.6 µM | OVCAR-8 74.1 µM | HOP-62 > 100 µM | SR > 100 µM | LOX IMVI 54.6 µM | TK-10 > 100 µM | OVCAR-4 > 100 µM | HOP-92 > 100 µM | UACC-62 95.1 µM

Nc1ncnc2sc(Nc3ccccc3)nc12
inactive: CAKI-1 55.5 µM | UO-31 45.8 µM | SK-MEL-2 > 100 µM | NCI-H522 28 µM | OVCAR-3 > 100 µM | OVCAR-8 > 100 µM | HOP-62 81.7 µM | SR 38 µM | LOX IMVI 99.3 µM | TK-10 46.9 µM | OVCAR-4 93.3 µM | HOP-92 77.1 µM | UACC-62 > 100 µM

CNC(=O)OCc1nc(SSc2nc(COC(=O)NC)c(COC(=O)NC)n2C)n(C)c1COC(=O)NC
inactive: CAKI-1 > 100 µM | UO-31 > 100 µM | SK-MEL-2 > 100 µM | RXF 393 > 100 µM | NCI-H522 > 100 µM | OVCAR-3 > 100 µM | OVCAR-8 > 100 µM | HOP-62 > 100 µM | SR > 100 µM | LOX IMVI > 100 µM | TK-10 > 100 µM | OVCAR-4 > 100 µM | HOP-92 > 100 µM | UACC-62 > 100 µM

O=c1[nH]c(=O)n(C2CC(O)C(CO)O2)cc1/C=C/Br (stereo not given)
inactive: CAKI-1 > 100 µM | UO-31 > 100 µM | SK-MEL-2 > 100 µM | RXF 393 > 100 µM | NCI-H522 > 100 µM | OVCAR-8 > 100 µM | HOP-62 > 100 µM | SR > 100 µM | LOX IMVI > 100 µM | TK-10 > 100 µM | OVCAR-4 > 100 µM | HOP-92 > 100 µM | UACC-62 > 100 µM

O=C(Nc1c(O)[nH]c(=S)[nH]c1=O)c1ccccn1
inactive: CAKI-1 > 100 µM | UO-31 > 100 µM | SK-MEL-2 > 100 µM | NCI-H522 > 100 µM | OVCAR-3 > 100 µM | OVCAR-8 > 100 µM | HOP-62 > 100 µM | SR > 100 µM | LOX IMVI > 100 µM | TK-10 > 100 µM | OVCAR-4 > 100 µM | HOP-92 39.1 µM | UACC-62 > 100 µM

O=C(c1c(O)cc(O)cc1O)C1Cc2ccccc21 (stereo not given)
inactive: CAKI-1 39.5 µM | UO-31 58.3 µM | SK-MEL-2 > 100 µM | RXF 393 76 µM | NCI-H522 10.3 µM | OVCAR-8 39.2 µM | HOP-62 45.2 µM | SR > 100 µM | LOX IMVI > 100 µM | TK-10 > 100 µM | OVCAR-4 30.4 µM | HOP-92 19.1 µM | UACC-62 > 100 µM
